# Experimental data from patent publication US20100204167A1, “ACTIVE COMPOUND COMBINATIONS HAVING INSECTICIDAL AND ACARICIDAL PROPERTIES” (priority 2006, published 2010).
# Assays:
# [1] = system: Aphis gossypii; experiment: Aphis gossypii test (cotton leaves dipped); format: in vivo; details: single active compound
# [2] = system: Tetranychus urticae; experiment: Tetranychus test (OP-resistant/spray treatment); format: in vivo; details: single active compound
# Method: Disks of bean leaves (Phaseolus vulgaris) which are infested by all stages of the greenhouse red spider mite (Tetranychus urticae) are sprayed with an active compound preparation of the desired concentration.
# After the desired period of time, the activity in % is determined.
# [3] = system: Phaedon cochleariae larvae; experiment: Phaedon cochleariae larvae test (Example G); details: 0.8 ppm, single active compound
# [4] = system: Phaedon cochleariae larvae; experiment: Phaedon cochleariae larvae test (Example D, spray); format: in vivo; details: single active compound
# [5] = system: Myzus persicae; experiment: Myzus persicae test (cabbage leaves sprayed); format: in vivo; details: single active compound
# [6] = system: Myzus persicae; experiment: Myzus persicae test (cabbage leaves dipped); format: in vivo; details: single active compound
# [7] = system: Spodoptera frugiperda larvae; experiment: Spodoptera frugiperda larvae test (spray); format: in vivo; details: single active compound
molecule,measurement,setting,value
spinosad,Kill in % after 6d,[1]; 100 ppm,20%
same,Kill in % after 2d,[2]; 4 g/ha,10%
same,Kill in % after 6d,[3],20%
CC(C)(C)c1ccc(CSc2cnn(C(C)(C)C)c(=O)c2Cl)cc1 [pyridaben],Kill in % after 6d,[4]; 4 g/ha,33%
same,Kill in % after 2d,[2]; 0.8 g/ha,0%
milbemectin,Kill in % after 1d,[5]; 0.8 g/ha,0%
CCOCn1c(-c2ccc(Cl)cc2)c(C#N)c(Br)c1C(F)(F)F [chlorfenapyr],Kill in % after 2d,[4]; 4 g/ha,0%
CCc1nn(C)c(C(=O)NCc2ccc(C(C)(C)C)cc2)c1Cl [tebufenpyrad],Kill in % after 6d,[4]; 4 g/ha,0%
COC1CCC2(CC1)NC(=O)C(c1cc(C)ccc1C)=C2O (centres unmarked) [compound (I-1-a)],Kill in % after 6d,[1]; 100 ppm,50%
same,Kill in % after 6d,[6]; 4 ppm,20%
same,Kill in % after 6d,[3],0%
CCOC(=O)OC1=C(c2cc(C)ccc2C)C(=O)NC12CCC(OC)CC2 (centres unmarked) [compound (I-2-a)],Kill in % after 6d,[1]; 0.8 ppm,0%
same,Kill in % after 6d,[5]; 0.8 g/ha,50%
same,Kill in % after 1d,[5]; 20 g/ha,0%
same,Kill in % after 6d,[6]; 0.8 ppm,0%
same,Kill in % after 6d,[4]; 4 g/ha,0%
same,Kill in % after 2d,[4]; 20 g/ha,0%
same,Kill in % after 6d,[4]; 20 g/ha,0%
same,Kill in % after 2d,[7]; 20 g/ha,17%
same,Kill in % after 2d,[7]; 100 g/ha,83%
same,Kill in % after 2d,[2]; 0.8 g/ha,0%
same,Kill in % after 2d,[2]; 20 g/ha,0%
CCOC(=O)OC1=C(c2cc(C)ccc2C)C(=O)N[C@]12CC[C@@H](OC)CC2 [compound (I-2)],Kill in % after 6d,[1]; 0.8 ppm,0%
same,Kill in % after 6d,[5]; 0.8 g/ha,50%
same,Kill in % after 1d,[5]; 20 g/ha,0%
same,Kill in % after 6d,[6]; 0.8 ppm,10%
same,Kill in % after 6d,[4]; 4 g/ha,0%
same,Kill in % after 2d,[4]; 20 g/ha,0%
same,Kill in % after 6d,[4]; 20 g/ha,0%
same,Kill in % after 2d,[7]; 20 g/ha,17%
same,Kill in % after 2d,[7]; 100 g/ha,83%
same,Kill in % after 2d,[2]; 0.8 g/ha,20%
same,Kill in % after 2d,[2]; 20 g/ha,10%
abamectin,Kill in % after 6d,[1]; 0.8 ppm,45%
same,Kill in % after 6d,[6]; 0.8 ppm,10%
same,Kill in % after 6d,[6]; 4 ppm,65%
CC(C)c1cc(Oc2ccccc2)cc(C(C)C)c1NC(=S)NC(C)(C)C [diafenthiuron],Kill in % after 6d,[5]; 4 g/ha,60%
same,Kill in % after 2d,[7]; 100 g/ha,50%
CO[C@H]1CC[C@]2(CC1)NC(=O)C(c1cc(C)ccc1C)=C2O [compound (I-1)],Kill in % after 6d,[1]; 100 ppm,70%
same,Kill in % after 6d,[6]; 4 ppm,5%
same,Kill in % after 6d,[3],0%
Cc1nn(C)c(Oc2ccccc2)c1C=NOCc1ccc(C(=O)OC(C)(C)C)cc1 [fenpyroximate],Kill in % after 1d,[5]; 20 g/ha,20%
same,Kill in % after 6d,[4]; 20 g/ha,33%
same,Kill in % after 2d,[7]; 100 g/ha,50%
